Data published in patent US20250327110A1, “HIGH THROUGHPUT MULTIPLEXED SERUM BASED BACTERICIDAL ASSAYS (SBAs), AND KITS FOR USE THEREIN” (priority 2024, published 2025).

How the values were obtained:
[1] = system: S. sonnei strain Moseley; format: cell-based, Shigella sonnei; conditions: for Antibiotic Sensitivity: strain Moseley (sonnei); for antibiotic resistance screening: strain Moseley, natural resistance
Text: (§1) Strains 2457T (S. flexneri 2a) and SNP0006 (S. flexneri 6) were made resistant to streptomycin and nalidixic acid, respectively, by natural selection as previously described (Burton, R. L. and M. H. Nahm, “Development and validation of a fourfold multiplexed opsonization assay (MOPA4) for pneumococcal antibodies”, Clin Vaccine Immunol, 2006. 13(9): p. 1004-9). Strain J17B (S. flexneri 3a) was made kanamycin resistant by transduction with a nadC:kan fusion gene with P1 phage (Prunier, A. L., et al., “Genetic structure of the nadA and nadB antivirulence loci in Shigella spp.”, J Bacteriol, 2007. 189(17): p. 6482-6), which was obtained from a S. flexneri 2a strain (BS655) (personal communication with Dr. C. Turnbough at UAB).
(§2) To prepare working stocks for the target strains, primary stocks were streaked onto blood agar plates and incubated at 37° C./5% CO2. After overnight culture, multiple colonies were transferred to liquid culture medium (Todd-Hewitt broth with 0.5% yeast extract) and grown at 37° C. until cultures reached an OD600 of 0.5-1.4. After reaching the desired OD, glycerol was added to a final concentration of 16%, and 0.5-ml aliquots were prepared and stored at ≤−60° C. until needed. Each WS was tested to confirm the antibiotic sensitivity/resistance profile and to determine the optimal dilution of bacteria to use for the assay.
(§3) All target strains were tested individually in assay conditions for growth on plates containing antibiotics.

[2] = system: SNP0006 (flexneri 6, parent CCH060); assay: antibiotic sensitivity of mSBA target strain SNP0006; format: cell-based, Shigella flexneri; conditions: strain SNP0006 (flexneri 6)
Text: as §1, §2, §3

[3] = system: SNP0004 (flexneri 3a, parent J17B); assay: antibiotic sensitivity of mSBA target strain SNP0004; format: cell-based, Shigella flexneri; conditions: strain SNP0004 (flexneri 3a)
Text: as §1, §2, §3

[4] = system: SNP0001 (flexneri 2a, parent 2457T); assay: antibiotic sensitivity of mSBA target strain SNP0001; format: cell-based, Shigella flexneri; conditions: strain SNP0001 (flexneri 2a)
Text: as §1, §2, §3

| SMILES | Antibiotic Sensitivity [1] | antibiotic resistance screening [1] | Antibiotic Sensitivity [2] | Antibiotic Sensitivity [3] | Antibiotic Sensitivity [4] |
| --- | --- | --- | --- | --- | --- |
| C[C@H]1c2cccc(O)c2C(O)=C2C(=O)[C@]3(O)C(O)=C(C(N)=O)C(=O)[C@@H](N(C)C)[C@@H]3[C@@H](O)[C@@H]21 [Dox, doxycycline] | R | naturally resistant | S | S | S |
| NC[C@H]1O[C@H](O[C@H]2[C@H](O)[C@@H](O[C@H]3O[C@H](CO)[C@@H](O)[C@H](N)[C@H]3O)[C@H](N)C[C@@H]2N)[C@H](O)[C@@H](O)[C@@H]1O [Kan, kanamycin] | S |  | S | R | S |
| CCn1cc(C(=O)O)c(=O)c2ccc(C)nc21 [NA, nalidixic acid] | S | sensitive | R | S | S |
| [H]/N=C(/N)N[C@H]1[C@H](O)[C@@H](O)[C@H](O[C@@H]2O[C@@H](C)[C@](O)(C=O)[C@H]2O[C@@H]2O[C@@H](CO)[C@H](O)[C@@H](O)[C@@H]2NC)[C@@H](N/C(N)=N\[H])[C@@H]1O [Strep, streptomycin] | S | sensitive | S | S | R |
